# Assays:
# MSSA ATCC 25923 [1] = experiment: Membrane depolarization assay with DiSC3(5); type: cell-based, Staphylococcus aureus
# Description: Antibiotic-induced bacterial cytoplasmic membrane depolarization was determined by using the fluorescent dye 3,3-dipropylthiacarbocyanine [DiSC3(5); Sigma-Aldrich, Australia] as previously described ([38]) with a high-throughput modification. Briefly, mid-logarithmic-phase MSSA ATCC 25923 cells were collected by centrifugation (5,000 × rpm, 10 min), washed once and diluted to approximately 5 × 10^7 CFU/ml in buffer (5 mM HEPES, 5 mM glucose; pH 7.2). The cell suspension was incubated with 0.4 μM DiSC3(5) until dye uptake was maximal, as indicated by a stable reduction in fluorescence of assay medium. KCl at 100 mM was added to equilibrate the cytoplasmic and external K^+ concentrations. A 90-μl aliquot of cell suspension was transferred into an Optiplate 96-well white microplate (PerkinElmer Corp., Australia), and 10 μl of antibiotic was added, to yield a series of solutions ranging from 0.1 to 30 μM. A blank with only cell suspension and dye was used for background subtraction. The fluorescence intensity was monitored in real time by using a BMG Labtech PolarStar Omega multimode reader fitted with 620-10 and 665-10 excitation and emission filters, respectively, at an excitation wavelength of 622 nm and an emission wavelength of 670 nm. The membrane depolarization assays were performed in triplicate, and the fluorescence leakage (FL) was defined by the following equation: FL = (FF − FB) − (FI − FB). Here, FF was the final fluorescence intensity in assay medium after 30 min of treatment with antibiotic, FI was the initial fluorescence intensity of the cell suspension, and FB was the fluorescence intensity of the blank.
# [2] = SPR binding to lipid bilayers on Biacore L1 chip; conditions: for normalized antibiotic bound to the three lipid bilayers (result in words): 10 μM, normalized to molecular weight and RULipid, Fig. 3B, n = 3
# Description: Lipid stock solutions were prepared in chloroform and mixed at the described mass composition of POPC, POPC/POPG (8:2, wt/wt) and POPC/POPE (8:2, wt/wt) ([33]), and the chloroform was evaporated as previously described ([34]). The lipids were resuspended in 1 ml of filtered (0.22-μm pore size) running buffer (phosphate-buffered saline [PBS]; pH 7.3) and then sonicated for 25 min in 5-min intervals. Small unilamellar vesicles (SUVs) were prepared by extrusion through a polycarbonate filter with a 50-nm pore diameter ([35]).
# SPR experiments were carried out with a Biacore T200 system (GE Health, Australia) using a Biacore vesicle capture (L1) sensor chip, which has lipophilic groups covalently attached to carboxymethylated dextran that facilitates direct lipid bilayer deposition ([34], [36]). All measurements were undertaken at a temperature of 25°C to maintain the lipid bilayer fluidity ([34]). SUVs at a total lipid concentration of 0.5 mg/ml were immediately passed across the chip surface for 60 min at a low flow rate of 2 μl/min, following three 30-s injections of 20 mM 3-cholamidopropyl-dimethylammonio-1-propane sulfonate (CHAPS) solution at a high flow rate of 30 μl/min to completely remove the captured vesicles from the sensor chip. To remove any multilamellar structures from the lipid surface and to stabilize the baseline, 10 mM NaOH was injected for 1 min at 50 μl/min. The coverage extent of the surface was later determined by a 5-min injection of 0.1 mg/ml bovine serum albumin (BSA) at a flow rate of 10 μl/min.
# The antibiotics were serially diluted in running buffer and then injected sequentially from the lowest (0.01 μM) to the highest (10 μM) concentration at a flow rate of 20 μl/min for 180 s, followed by a dissociation of 300 s and a 1-min regeneration with 10 mM HCl at a flow rate of 10 μl/min. SPR experiments were performed in triplicate. The actual amount of antibiotic bound to each lipid bilayer was corrected by subtraction of the bulk refractive index difference (buffer control) and then normalized by dividing the antibiotic-bound resonance units (RUBound) obtained in the SPR sensorgrams (see Fig. 3A, below) by the corresponding antibiotic molecular weight and the resonance units of the individual lipid vesicle captured on the chip surface (RULipid) (see Fig. S1 in the supplemental material) by using the following equation: normalized antibiotic bound = (10^3 × RUBound)/(molecular weight × RULipid). Normalization against molecular weight and RULipid was necessary, as SPR units are mass dependent and RULipid values vary according to lipid type ([37]).
# MSSA ATCC 25923 [3] = conditions: for MBC, 50% Human serum: Table S1, MHB with 50% human serum; for MBC, MHB: Table S1, MHB without serum, clear wells plated onto agar, 37°C overnight
# Description: MICs against MSSA ATCC 25923 were measured by broth microdilution according to the Clinical and Laboratory Standards Institute (CLSI) M7-A7 methodology ([30]). Briefly, serial 2-fold dilutions of each antibiotic were added into Costar nontreated polystyrene 96-well plates, and each well was inoculated with 50 μl of MSSA in MHB to a final concentration of approximately 5 × 10^5 CFU/ml. […] The dilution representing the MIC and two of the more and less concentrated dilutions were plated out onto Trypticase soy agar plates and enumerated to determine viable CFU/ml ([31]). […]
# 25923 in MHB media in the presence and absence of Human serum (10% and 50%) in
# Corning NonTC microtitre plates (CLS3370)
# a The MBCs were determined by plating out the clear wells onto an agar plate and were incubated at
# 37°C overnight. Each colony represents one viable bacterium. […]
# MSSA ATCC 25923 [4] = experiment: Time-kill studies (CLSI M26-A); type: cell-based, Staphylococcus aureus
# Description: Time-kill studies were carried out based on guideline M26-A of the CLSI ([32]), using Costar nontreated polystyrene 96-well plates. […] Culture aliquots were mixed with the charcoal suspension (25 mg/ml) to minimize antibiotic carryover. Viable cell counts were determined after 0, 0.5, 1, 2, 4, 6, 8, and 24 h of incubation at 37°C by plating serially diluted samples onto Trypticase soy agar plates. Bactericidal activity was defined as a ≥3-log10 CFU/ml decrease, in comparison with the baseline, after 24 h of incubation ([32]).
Molecule,"fluorescence leakage (MSSA ATCC 25923 [1]; 12× MIC, 30 min)",normalized antibiotic bound to the three lipid bilayers (result in words) [2],"MBC, 10% Human serum (MSSA ATCC 25923 [3]; Table S1, MHB with 10% human serum)","MBC, 50% Human serum (MSSA ATCC 25923 [3])","MBC, MHB (MSSA ATCC 25923 [3])",reduction in viable count (MSSA ATCC 25923 [4]; vancomycin at the MBC and above for 8 h),"membrane depolarization (result in words) (MSSA ATCC 25923 [1]; 30 min treatment, 0.1 to 30 μM, Fig. 4, n = 3)",SPR dissociation after completion of injection ([2]; 0.01 to 1 μM),"SPR association with membranes at low concentrations ([2]; 0.01 to 1 μM, PBS pH 7.3, 25°C)","SPR binding response (RUBound) ([2]; 3 and 10 μM, both anionic and zwitterionic membranes, 180 s injection, PBS pH 7.3, 25°C)",concentration at which binding to anionic and zwitterionic membranes occurs ([2]; dose-dependent),MBC as multiple of MIC (MSSA ATCC 25923 [3]),"MBC (MSSA ATCC 25923 [3]; lowest concentration yielding 99.9% reduction in initial colony count after 24 h, MHB)",time to bactericidal activity (MSSA ATCC 25923 [4]; concentrations equal to or above the MBC)
CN[C@H](CC(C)C)C(=O)N[C@H]1C(=O)N[C@@H](CC(N)=O)C(=O)N[C@H]2C(=O)N[C@H]3C(=O)N[C@H](C(=O)N[C@H](C(=O)O)c4cc(O)cc(O)c4-c4cc3ccc4O)[C@H](O)c3ccc(c(Cl)c3)Oc3cc2cc(c3O[C@@H]2O[C@H](CO)[C@@H](O)[C@H](O)[C@H]2O[C@H]2C[C@](C)(N)[C@H](O)[C@H](C)O2)Oc2ccc(cc2Cl)[C@H]1O [vancomycin],no leakage,negligible binding to each of the three different membranes,2 µg/mL,2 µg/mL,2 µg/mL,> 3 log10 CFU/ml,–,–,–,–,–,–,–,–
ramoplanin,–,POPC:POPG (8:2) > POPC > POPC:POPE (8:2),–,0.5 µg/mL,8/2,–,dose-dependent membrane depolarization but less efficiently than nisin,complete dissociation,negligible association,"~6,000 RU",≥ 3 µM,2 × MIC,4 µg/mL,less than 4 h
